Data taken from US4425356A, “Lankacidin derivatives used in swine husbandry” (Takeda Chemical Industries, Ltd., priority 1980, dated 1984).
Converted amounts (≈) assume the structure as drawn. “And” between values parts separate entries of the source, which are not always exact repeats. Equal entries are not always repeated. Where two headings read alike, the source gives them in different places.

Key:
Treponema hyodysenteriae = test: in vitro antibacterial activity (MIC, agar dilution method), Test Examples 1-3; format: cell-based; settings: 37° C., 2 days, anaerobic; for MIC: Brachyspira hyodysenteriae, 48 h
Method: Several agents were tested for in vitro antibacterial activity against Treponema hyodysenteriae, the pathogenic bacteria causing swine dysentery, by the method of testing drug sensitivity of Treponema hyodysenteriae (Kashiwazaki et al. Abstracts of Papers presented at the 82nd Meeting of the Japanese Society of Veterinary Science, page 101, 1976).
(1) Strains: These strains belong to Treponema hyodysenteriae isolated
from the bloody mucous faeces of dysenteric pigs in Japan.
(2) Antimicrobial activity assay: Agar dilution method
(3) Inoculum size: A loopful of bacterial suspension (10^6 CFU/ml)
(4) Cultural conditions: GasPak anaerobic system (BBL), 37° C., 2
Typical agents among compound (I) were tested for in vitro antibacterial activity by the same method as in Test Example 1.
The experimental conditions are the same as in Test Example 1 (Table 1).
Agents of compound (I) were tested for in vitro antibacterial activity by the same method as in Test Example 1.

[1] = system: Treponema hyodysenteriae 78/A strain; test: efficacy against swine dysentery under experimental infection conditions in pigs (drug in feed), Test Examples 5-7; format: in vivo, Landrace pigs; settings: for Body weight gain / Feed conversion / Feed intake: 21 day period; for Body weight gain / Feed conversion / Feed intake / Body weight at the time of completion of test: mean per head
Method: Lankacidin C was tested for efficacy against swine dysentery under experimental infection conditions. Thus, twelve 6-week-old Landrace pigs (4 per group) were used. The test drug was admixed to a concentration of 100 ppm with the domestically formulated starter feed for young pigs without antibiotics. The animals were provided with the ration ad libitum. Infection of the pigs was effected by direct intragastrical administration to the SPF pigs of an inoculum prepared by preliminary anaerobic cultivation of the Treponema hyodysenteriae 78/A strain on a 5% horse blood added agar plate, mashing together with the culture medium and admixing with 5% mucin added phosphate buffer. Colonic contents and mucosa were collected from pigs which developed typical signs of swine dysentery, and diluted two-fold with 5% mucin added phosphate buffer. The dilution was used as the final inoculum, and 100 ml of the dilution was directly injected into the stomach of test pigs at the age of 7 weeks (fasted for 24 hours before infection). The pigs were fed for 21 days following infection.
The data are each the mean value per head for the 21day period from
infection to autopsy. Different alphabetic letters on the same line
indicate that there is a significant difference between the data to which
they are attached (P <0.05).
Lankacidin C was tested at concentrations in feed of 100 ppm and lower by the same method as in Test Example 5, with carbadox, a commonly used anti-swine-dysentery agent, for comparison.
The anti-swine-dysentery effects of 10 ppm each of lankacidin A and lankacidin C 14-propionate were examined by the procedure of Test Example 6.

[2] = strain 78/A, read-out: Minimum Inhibitory Concentration
[3] = strain CD1 (CD-1), read-out: Minimum Inhibitory Concentration
[4] = strain DJ70P1, read-out: Minimum Inhibitory Concentration
[5] = strain MK-2, read-out: Minimum Inhibitory Concentration
[6] = 50 ppm in feed, 21-day test period
[7] = 100 ppm in feed, 21-day test period

Compound | MIC (Treponema hyodysenteriae; [2]) [µg/mL] | MIC (Treponema hyodysenteriae; [3]) [µg/mL] | MIC (Treponema hyodysenteriae; [4]) [µg/mL] | MIC (Treponema hyodysenteriae; [5]) [µg/mL] | other results
CC(=O)C(=O)NC1C=C(C)C=CC(O)CC=C(C)C=CC(OC(=O)C(C)C)CC2OC(=O)C1(C)C(=O)C2C (stereo not shown) [Lankacidin C 14-isobutyrate] | 12.5 (≈ 23.6 µM) | 25 (≈ 47.2 µM) | 12.5 (≈ 23.6 µM) | 25 (≈ 47.2 µM) | –
CC(=O)C(=O)NC1C=C(C)C=CC(OC(=O)c2ccccc2)CC=C(C)C=CC(O)CC2OC(=O)C1(C)C(=O)C2C (stereo not shown) [Lankacidin C 8-benzoate, lankacidin C 8-benzoate] | 0.1 (≈ 0.177 µM) | 0.1 (≈ 0.177 µM) | 0.1 (≈ 0.177 µM) | 0.1 (≈ 0.177 µM) | –
CCCC(=O)OC1C=CC(C)=CC(NC(=O)C(C)=O)C2(C)C(=O)OC(CC(O)C=CC(C)=CC1)C(C)C2=O (stereo not shown) [Lankacidin C 8-butyrate] | 0.78 (≈ 1.47 µM) | 0.78 (≈ 1.47 µM) | 0.78 (≈ 1.47 µM) | 0.78 (≈ 1.47 µM) | –
CCC(=O)OC1C=CC(C)=CC(NC(=O)C(C)=O)C2(C)C(=O)OC(CC(OC(C)=O)C=CC(C)=CC1)C(C)C2=O (stereo not shown) [Lankacidin A 8-propionate, lankacidin A 8-propionate] | 6.25 (≈ 11.2 µM) | 6.25 (≈ 11.2 µM) | 6.25 (≈ 11.2 µM) | 6.25 (≈ 11.2 µM) | –
COC(=O)N/N=C/c1c[n+]([O-])c2ccccc2[n+]1[O-] [Carbadox, carbadox, reference compound] | – | – | – | – | Number of pigs from which the pathogen was detected, in colonic mucosa ([1]; 50 ppm in feed): 0; Number of pigs from which the pathogen was detected, in feces ([1]; 50 ppm in feed): 0; Number of pigs showing colonic lesions ([1]; 50 ppm in feed): 0; Number of days on which mucous bloody stool was observed [1, 6]: 0 days; Number of pigs showing signs of infection/number of pigs used [1, 6]: 0/4; Body weight gain ([1]; 50 ppm in feed): 473 grams/day and 552 grams/day; Feed conversion ([1]; 50 ppm in feed): 2.08 and 1.83; Feed intake ([1]; 50 ppm in feed): 20.7 kg and 21.2 kg; Body weight at the time of completion of test ([1]; 50 ppm in feed): 21.0 kg and 22.7 kg
Spiramycin [reference compound] | – | – | – | – | Minimum Inhibitory Concentration (Treponema hyodysenteriae; strain 78/A): > 100 µg/mL; Minimum Inhibitory Concentration (Treponema hyodysenteriae; strain CD1 (CD-1)): > 100 µg/mL; Minimum Inhibitory Concentration (Treponema hyodysenteriae; strain DJ70P1): > 100 µg/mL; Minimum Inhibitory Concentration (Treponema hyodysenteriae; strain MK-2): > 100 µg/mL
CCCC(=O)OC1C=CC(C)=CC(NC(=O)C(C)=O)C2(C)C(=O)OC(CC(OC(=O)CCC)C=CC(C)=CC1)C(C)C2=O (stereo not shown) [Lankacidin C 8,14-dibutyrate] | 1.56 (≈ 2.6 µM) | 3.13 (≈ 5.22 µM) | 3.13 (≈ 5.22 µM) | 3.13 (≈ 5.22 µM) | –
CC[C@H]1OC(=O)[C@H](C)[C@@H](O[C@H]2C[C@@](C)(OC)[C@@H](O)[C@H](C)O2)[C@H](C)[C@@H](O[C@@H]2O[C@H](C)C[C@H](N(C)C)[C@H]2O)[C@](C)(O)C[C@@H](C)C(=O)[C@H](C)[C@@H](O)[C@]1(C)O [Erythromycin, reference compound] | – | – | – | – | MIC (Treponema hyodysenteriae; read-out: Minimum Inhibitory Concentration, strain 78/A): > 100 µg/mL; MIC (Treponema hyodysenteriae; read-out: Minimum Inhibitory Concentration, strain CD1 (CD-1)): > 100 µg/mL; MIC (Treponema hyodysenteriae; read-out: Minimum Inhibitory Concentration, strain DJ70P1): > 100 µg/mL; MIC (Treponema hyodysenteriae; read-out: Minimum Inhibitory Concentration, strain MK-2): > 100 µg/mL
CO[C@H]1C[C@H](O[C@H]2[C@H](C)[C@@H](O[C@@H]3O[C@H](C)C[C@H](N(C)C)[C@H]3O)[C@@H](C)C[C@@]3(CO3)C(=O)[C@H](C)[C@@H](O)[C@@H](C)[C@@H](C)OC(=O)[C@@H]2C)O[C@@H](C)[C@@H]1O [Oleandomycin, reference compound] | > 100 | > 100 | > 100 | > 100 | –
CC(=O)OC1C=CC(C)=CC(NC(=O)C(C)=O)C2(C)C(=O)OC(CC(OC(C)=O)C=CC(C)=CC1)C(C)C2=O (stereo not shown) [Lankacidin C 8,14-diacetate, lankacidin C 8,14-diacetate] | 3.13 (≈ 5.76 µM) | 3.13 (≈ 5.76 µM) | 3.13 (≈ 5.76 µM) | 1.56 (≈ 2.87 µM) | –
CCCCC(=O)OC1C=CC(C)=CCC(O)C=CC(C)=CC(NC(=O)C(C)=O)C2(C)C(=O)OC(C1)C(C)C2=O (stereo not shown) [Lankacidin C 14-valerate] | 3.13 (≈ 5.76 µM) | 6.25 (≈ 11.5 µM) | 3.13 (≈ 5.76 µM) | 6.25 (≈ 11.5 µM) | –
Maridomycin [reference compound] | – | – | – | – | Minimum Inhibitory Concentration (Treponema hyodysenteriae; strain 78/A): > 100 µg/mL; Minimum Inhibitory Concentration (Treponema hyodysenteriae; strain CD1 (CD-1)): > 100 µg/mL; Minimum Inhibitory Concentration (Treponema hyodysenteriae; strain DJ70P1): > 100 µg/mL; Minimum Inhibitory Concentration (Treponema hyodysenteriae; strain MK-2): > 100 µg/mL; Number of pigs from which the pathogen was detected, in colonic mucosa ([1]; 100 ppm in feed): 4; Number of pigs from which the pathogen was detected, in feces ([1]; 100 ppm in feed): 4; Number of pigs showing colonic lesions ([1]; 100 ppm in feed): 4; Number of days on which diarrhea was observed [1, 7]: 11.0 days; Number of days on which mucous bloody stool was observed [1, 7]: 5.5 days; Number of pigs showing signs of infection/number of pigs used [1, 7]: 3/4; Body weight gain ([1]; 100 ppm in feed): 430 grams/day; Feed conversion ([1]; 100 ppm in feed): 2.09; Feed intake ([1]; 100 ppm in feed): 18.8 kg; Body weight at the time of completion of test ([1]; 100 ppm in feed): 21.9 kg; effect against swine dysentery (in words) ([1]; pig, in vivo): ineffective
CO[C@@H]1[C@@H](O[C@@H]2O[C@H](C)[C@@H](O[C@H]3C[C@@](C)(O)[C@@H](OC(=O)CC(C)C)[C@H](C)O3)[C@H](N(C)C)[C@H]2O)[C@@H](CC=O)C[C@@H](C)[C@@H](O)/C=C/C=C/C[C@@H](C)OC(=O)C[C@H]1O [Leucomycin, reference compound] | > 100 | > 100 | > 100 | > 100 | –
CCC(=O)OC1C=CC(C)=CC(NC(=O)C(C)=O)C2(C)C(=O)OC(CC(OC(=O)CC)C=CC(C)=CC1)C(C)C2=O (stereo not shown) [Lankacidin C 8,14-dipropionate, lankacidin C 8,14-dipropionate] | 0.78 (≈ 1.36 µM) | 1.56 (≈ 2.73 µM) | 0.78 (≈ 1.36 µM) | 0.78 (≈ 1.36 µM) | –
CCC(=O)OC1C=CC(C)=CC(NC(=O)C(C)=O)C2(C)C(=O)OC(CC(O)C=CC(C)=CC1)C(C)C2=O (stereo not shown) [Lankacidin C 8-propionate, lankacidin C 8-propionate] | 1.56 (≈ 3.03 µM) | 1.56 (≈ 3.03 µM) | 1.56 (≈ 3.03 µM) | 1.56 (≈ 3.03 µM) | –
CC(=O)C(=O)NC1C=C(C)C=CC(OC(=O)C(C)C)CC=C(C)C=CC(O)CC2OC(=O)C1(C)C(=O)C2C (stereo not shown) [Lankacidin C 8-isobutyrate] | 6.25 (≈ 11.8 µM) | 6.25 (≈ 11.8 µM) | 3.13 (≈ 5.91 µM) | 6.25 (≈ 11.8 µM) | –
CCCC(=O)OC1C=CC(C)=CCC(O)C=CC(C)=CC(NC(=O)C(C)=O)C2(C)C(=O)OC(C1)C(C)C2=O (stereo not shown) [Lankacidin C 14-butyrate] | 0.78 (≈ 1.47 µM) | 1.56 (≈ 2.95 µM) | 1.56 (≈ 2.95 µM) | 3.13 (≈ 5.91 µM) | –
CC(=O)C(=O)NC1C=C(C)C=CC(O)CC=C(C)C=CC(OC(=O)c2ccccc2)CC2OC(=O)C1(C)C(=O)C2C (stereo not shown) [Lankacidin C 14-benzoate, lankacidin C 14-benzoate] | 6.25 (≈ 11.1 µM) | 6.25 (≈ 11.1 µM) | 6.25 (≈ 11.1 µM) | 6.25 (≈ 11.1 µM) | –
CC(=O)C(=O)NC1C=C(C)C=CC(O)CC=C(C)C=CC(OC=O)CC2OC(=O)C1(C)C(=O)C2C (stereo not shown) [Lankacidin C 14-formate, lankacidin C 14-formate] | 6.25 (≈ 12.8 µM) | 12.5 (≈ 25.6 µM) | 6.25 (≈ 12.8 µM) | 6.25 (≈ 12.8 µM) | –
CCC[C@@H]1C[C@@H](C(=O)N[C@@H]([C@H]2O[C@H](SC)[C@H](O)[C@@H](O)[C@H]2O)[C@@H](C)O)N(C)C1 [Lincomycin, reference compound] | 50 (≈ 123 µM) | 50 (≈ 123 µM) | 50 (≈ 123 µM) | 50 (≈ 123 µM) | –
CCCCC(=O)OC1C=CC(C)=CC(NC(=O)C(C)=O)C2(C)C(=O)OC(CC(O)C=CC(C)=CC1)C(C)C2=O (stereo not shown) [Lankacidin C 8-valerate] | 1.56 (≈ 2.87 µM) | 3.13 (≈ 5.76 µM) | 1.56 (≈ 2.87 µM) | 3.13 (≈ 5.76 µM) | –
